# Data from PMC8879803, “Identification of a Common Pharmacophore for Binding to MMP2 and RGD Integrin: Towards a Multitarget Approach to Inhibit Cancer Angiogenesis and Metastasis” (Molecules, 2022).
# pIC50: −log10 of the molar value.
# Legend:
# MMP2 = target: T1, MMP2 (Homo sapiens, UniProt P08253); experiment: Fluorometric enzyme inhibition assay with fluorogenic substrate Mca-Lys-Pro-Leu-Gly-Leu-Dpa-Ala-Arg-NH2 (MMP2); format: biochemical; details: for inhibition at 10 µM: 10 μM compound; for inhibition at 10 µM / inhibition at 50 µM / pIC50: enzyme 1 nM; for inhibition at 10 µM / inhibition at 50 µM: mean of three assays; for inhibition at 50 µM: 50 μM compound; for pIC50: dose-response
# T1 sequence (P08253 110-660): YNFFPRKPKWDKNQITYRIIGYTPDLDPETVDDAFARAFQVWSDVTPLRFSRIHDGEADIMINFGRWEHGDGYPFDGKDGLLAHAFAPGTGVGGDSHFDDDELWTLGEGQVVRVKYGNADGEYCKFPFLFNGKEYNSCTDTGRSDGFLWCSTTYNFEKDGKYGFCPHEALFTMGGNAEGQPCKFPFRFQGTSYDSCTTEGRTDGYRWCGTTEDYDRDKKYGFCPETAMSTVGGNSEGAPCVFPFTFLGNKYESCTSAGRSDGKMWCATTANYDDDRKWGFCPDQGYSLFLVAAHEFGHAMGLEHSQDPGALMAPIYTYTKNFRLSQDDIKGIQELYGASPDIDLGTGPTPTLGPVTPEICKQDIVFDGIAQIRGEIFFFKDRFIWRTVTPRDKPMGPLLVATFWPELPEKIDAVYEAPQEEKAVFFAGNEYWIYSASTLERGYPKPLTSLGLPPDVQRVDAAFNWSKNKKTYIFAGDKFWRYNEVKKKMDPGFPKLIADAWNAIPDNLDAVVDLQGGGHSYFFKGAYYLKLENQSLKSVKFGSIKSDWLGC
# Protocol: (§1) For all the compounds showing >50% inhibition activity the IC50 values were obtained by dose-response measurements using an inhibitor range of concentrations (0.01 nM–20 μM) and enzyme concentration equal to 1 nM.
# (§2) The inhibition potency of hydroxamic acid derivatives against MMP2 and MMP9 was assayed through a fluorometric assay using the fluorogenic substrate Mca-Lys-Pro-Leu-Gly-Leu-Dpa-Ala-Arg-NH2 (Enzo life science). All the measurements were performed in 96-well plates with a Fluostar Optima microplate reader (BMG Labtech, Ortenberg, Germany). Excitation and emission wavelengths were 320 and 420 nm, respectively. All incubations were performed at 28 °C in 50 mM TrisHCl, 150 mM NaCl, 10 mM CaCl2, 0.05% Brij 35, 1% DMSO at pH 7.5. The inhibitors were pre-incubated with enzymes (1 nM) for 5 min at room temperature before the reaction was started by the addition of the fluorogenic substrate (3 µM). The […] of fluorescence was monitored over 30 min (λex = 320 nm, λem = 420 nm) at 28 °C. The percentages of inhibition for the test compounds were determined through the equation (1 − Vs/Vo) × 100, where vs. is the initial velocity in the presence of the inhibitor and V0 is the initial velocity of the uninhibited reaction. The IC50 values were obtained by dose-response measurements using inhibitor range of concentrations 0.00001–20 μM and enzyme concentration equal to 1 nM. A detergent-based assay was used to determine the presence of promiscuous inhibitors. All the experiments were performed in triplicates and data collected were analyzed using Graphpad 5.0 Software Package (GraphPad Prism Inc., San Diego, CA, USA).
# MMP9 = MMP9 (Homo sapiens, UniProt P14780); experiment: Fluorometric enzyme inhibition assay with fluorogenic substrate Mca-Lys-Pro-Leu-Gly-Leu-Dpa-Ala-Arg-NH2 (MMP9); format: biochemical; details: for inhibition at 10 µM: 10 μM compound; for inhibition at 10 µM / inhibition at 50 µM / pIC50: enzyme 1 nM; for inhibition at 10 µM / inhibition at 50 µM: mean of three assays; for inhibition at 50 µM: 50 μM compound; for pIC50: dose-response
# Protocol: as §1, §2
# [1] = target: T2, purified human integrin proteins αvβ3 (Homo sapiens, UniProt P05106+P06756); experiment: Solid-phase integrin binding assay (competition with biotinylated vitronectin); details: for inhibition at 0.1 µM / inhibition at 1 µM / inhibition at 10 µM: read-out: Inhibition % of biotinylated vitronectin specific binding to αvβ3
# T2 construct: purchased Sino Biological Europe GmbH, Eschborn, Germany
# Protocol: As regarding to the binding affinity towards αvβ3, the library was screened using an in vitro solid-phase assays were performed at 10, 1.0 and 0.1 μM concentration of the test compounds for their ability to compete with biotinylated vitronectin for binding to pure αvβ3 integrin isolated from human placenta, and % binding activity is reported in Table 2.
# Purified αvβ3 receptors (Sino Biological Europe GmbH, Eschborn, Germany) were diluted to 0.5 μg/mL in coating buffer containing Tris-HCl (20 mmol/L; pH 7.4), NaCl (150 mmol/L), MnCl2 (1 mmol/L), CaCl2 (2 mmol/L) and MgCl2 (1 mmol/L). An aliquot of diluted receptors (100 μL per well) was added to 96-well microtiter plates (MW 96F Medisorp Straight Nunc, Thermo Fischer Scientific, Waltham, MA, USA) and incubated, overnight, at 4 °C. The plates were then incubated with blocking solution (coating buffer plus 5% bovine serum albumin) for an additional 2 h at room temperature to block nonspecific binding followed by 3 h incubation at room temperature with various concentrations of test compounds in the presence of vitronectine (1 μg/mL, Sigma Aldrich, Merck KGaA, Darmstadt, Germany) biotinylated by using EZ-Link Sulfo-NHS-Biotinylation kit (Thermo Fisher, Waltham, MA, USA). After washing, the plates were incubated for 1 h at room temperature with streptavidin–biotinylated peroxidase complex (GE Healthcare, Chicago, IL, USA), followed by 30 min incubation with substrate reagent solution (100 μL; R&D Systems) before stopping the reaction by addition of H2SO4 (2 N, 50 μL). Absorbance at 415 nm was read with a BMG Labtech Fluostar Optima microplate reader. All the experiments were performed in triplicates and data collected were analyzed using the GraphPad 5.0 Software Package.
# M21 human melanoma cells = experiment: Inhibition of integrin-mediated M21 cell adhesion to vitronectin; format: cell-based; details: 2 mM MnCl2, relative to vehicle (PBS); for inhibition at 0.3 µM / inhibition at 3 µM / inhibition at 30 µM: Homo sapiens, M21
# Protocol: All the compounds but 17 were also tested for their integrin binding affinity towards M21 human melanoma cells that expresses high levels of αvβ3 heterodimer and using cilengitide as a control. Tests were performed in the presence of 2 mM MnCl2 to switch integrins of tumour cells into an activated form, and at final concentration of the compounds ranging from 30 μM to 0.3 μM (Table 3). […] We were pleased to find that compound 19 maintained a good inhibition potency at 0.3 μM as the lowest concentration used, thus confirming the capacity of this compound to inhibit the binding of M21 melanoma cells to vitronectin as an RGD-containing substrate.
# The expression levels of αVβ3 integrin receptors on M21 melanoma cell lines were reported previously. Next, 96 wells plates were coated overnight, at 4 °C, with vitronectin (5 μg/mL in PBS) (V8379 Sigma). Plates were, then washed with phosphate buffered saline (PBS) solution and incubated at 37 °C for 1 h with PBS containing 1% bovine serum albumin (BSA). M21 cells were centrifugated (RT, at 700× g) in PBS, to remove serum. Cells were counted and suspended in serum-free medium at 5.0 × 10^5 cells/mL. Melanoma cell suspensions were pre-incubated with different amounts of the compounds. The final concentration ranged from 30 uM to 0.3 uM, using cilengitide as a control. The incubation was performed at 37 °C for 30 min to allow the ligand-receptor equilibrium to be reached. Next, cells were plated on VN substrata (5–6 × 10^4 cells/well) and incubated at 37 °C for 1 h. The assays were conducted in the presence of 2 mmol/L MnCl2 [26]. At the end of the incubation, plates were washed with PBS to remove the non-adherent cells, and 200 μL of 0.5% crystal violet solution in 20% methanol were added. After 2 h of static incubation at 4 °C, plates were examined at 540 nm in a counter ELX800 (Bio TEK Instruments, Winooski, VT, USA). Experiments were done in triplicate and repeated at least three times. The values are expressed as % inhibition of cell adhesion relative to cells exposed to vehicle alone (PBS).
inhibition at 10 µM (MMP2) [%],inhibition at 50 µM (MMP2) [%],pIC50 (MMP2),inhibition at 10 µM (MMP9) [%],inhibition at 50 µM (MMP9) [%],pIC50 (MMP9),inhibition at 0.1 µM [1] [%],inhibition at 1 µM [1] [%],inhibition at 10 µM [1] [%],"IC50 towards MMP2, in words (MMP2)","IC50 towards MMP9, in words (MMP9; statement in text (gelatinases))","pIC50 ([1]; dose-response assay, read-out: IC50 (αvβ3), inhibition of biotinylated vitronectin binding)",Molecule,inhibition at 0.3 µM (M21 human melanoma cells; at 0.3 μM) [%],inhibition at 3 µM (M21 human melanoma cells; at 3 μM) [%],inhibition at 30 µM (M21 human melanoma cells; at 30 μM) [%],Inhibition % of M21 cell adhesion to vitronectin (M21 human melanoma cells; at 0.3 μM) [%],Inhibition % of M21 cell adhesion to vitronectin (M21 human melanoma cells; at 3 μM) [%],Inhibition % of M21 cell adhesion to vitronectin (M21 human melanoma cells; at 30 μM) [%]
97,100,7.43,63,73,6.44,20,12,2,–,–,–,"O=C(NO)[C@H](Cc1ccc(O)cc1)NS(=O)(=O)c1ccc(-c2ccccc2)cc1 [Compound 21, (S)-2-([1,1′-Biphenyl]-4-ylsulfonamido)-N-hydroxy-3-(4-hydroxyphenyl)propanamide]",29.7,28.8,17.4,–,–,–
0,0,–,0,0,–,0,0,0,–,–,–,"NCCCOc1ccc(C[C@H](NS(=O)(=O)c2ccc([N+](=O)[O-])cc2)C(=O)O)cc1 [Compound 17, (S)-3-(4-(3-Aminopropoxy)phenyl)-2-(4-nitrophenylsulfonamido)propanoic Acid]",–,–,–,–,–,–
–,–,–,–,–,–,–,–,–,–,–,–,"c[RGDf(Me)V] [Cilengitide, reference compound]",–,–,–,80,76,62
60,79,5.92,0,0,–,26,26,19,micromolar range,–,–,"NCCCOc1ccc(C[C@H](NS(=O)(=O)c2ccc(-c3ccccc3)cc2)C(=O)O)cc1 [Compound 16, (S)-2-([1,1′-Biphenyl]-4-ylsulfonamido)-3-(4-(3-aminopropoxy)phenyl)propanoic Acid]",28,28.9,68.5,–,–,–
100,100,7.26,100,100,7.42,21,41,88,nanomolar range,nanomolar range,6.43,"NCCCOc1ccc(C[C@H](NS(=O)(=O)c2ccc(-c3ccccc3)cc2)C(=O)NO)cc1 [Compound 19, (S)-2-([1,1′-Biphenyl]-4-ylsulfonamido)-3-(4-(3-aminopropoxy)phenyl)-N-hydroxypropanamide]",57.8,35.8,65.7,–,–,–
0,21,–,0,0,–,0,18,54,–,–,–,"N=C(N)NCCCOc1ccc(C[C@H](NS(=O)(=O)c2ccccc2)C(=O)O)cc1 [Compound 9, (S)-3-(4-(3-Guanidinopropoxy)phenyl)-2-(phenylsulfonamido)propanoic Acid]",41.4,62.5,75.9,–,–,–
52,75,6.12,42,63,5.89,0,0,27,–,–,–,"N=C(N)NCCCOc1ccc(C[C@H](NS(=O)(=O)c2ccccc2)C(=O)NO)cc1 [Compound 18, (S)-3-(4-(3-Guanidinopropoxy)phenyl)-N-hydroxy-2-(phenylsulfonamido)propanamide]",44.9,64.3,74.1,–,–,–
16,41,–,0,0,–,8,1,5,–,–,–,"N=C(N)NCCCOc1ccc(C[C@H](NS(=O)(=O)c2ccc(-c3ccccc3)cc2)C(=O)O)cc1 [Compound 10, (S)-2-([1,1′-Biphenyl]-4-ylsulfonamido)-3-(4-(3-guanidinopropoxy)phenyl)propanoic Acid]",43.8,76.7,76.9,–,–,–
